In brackets after ≈: the same amount, converted by molar mass. Counter-ions that a name gives are not always drawn.

The source of these data is patent publication EP0478545B1, “1,2,4-BENZOTRIAZINE OXIDES AS RADIOSENSITIZERS AND SELECTIVE CYTOTOXIC AGENTS” (SRI INTERNATIONAL, priority 1989, dated 1991).

The nature of data set [1]: physchem.
A short description of the next data set: Determination of LD50. The conditions noted are these: mouse, in vivo; Balb/c female mice 3-5 months of age; ip (or iv) injection in physiological saline. The procedure: LD50 is determined in BALB/c female mice (weighing 20-25 g) following intraperitoneal (ip) injection, unless the compound tested has low lipophilicity and is very soluble, wherein intravenous (iv) administration is used. LD50 values at 1, 2, 5, and 60 days are determined by administering graded doses of the drug dissolved in physiological saline immediately prior to injection.

Data set [2] in a line: physchem. The conditions noted are these: pH 7.4.
Data set [3] can be described thus: Octanol-water partition coefficient (method of Fujita et al.). The conditions noted are these: pH 7.4.

In general, solubility refers to how much of the substance goes into solution per volume. What is called LD50 is the dose at which mortality reaches 50%. Read a low LD50 as a more toxic substance. By logP is commonly meant the decadic logarithm of the partition coefficient of the neutral form, usually between octanol and water. In the case of `Nc1n[n+]([O-])c2ccccc2[n+]1[O-]` [Compound 22], in “physchem [1]”, the solubility is 13.5 mM (≈ 2410 µg/mL). This compound showed an LD50 in the data set “Determination of LD50” of 500 µmol/kg. In the data set “physchem [2]”, this compound registered a logP of -0.32.

Consider `CCN(CC)CCNc1n[n+]([O-])c2cc([N+](=O)[O-])ccc2[n+]1[O-]` [Compound 21, 7-nitro-3-(2-N,N-diethylaminoethylamino)-1,2,4-benzotriazine 1,4-dioxide hydrochloride], for which the logP in data set [3] is -0.2.

Consider `Nc1n[n+]([O-])c2cc([N+](=O)[O-])ccc2[n+]1[O-]` [Compound 14, 7-nitro-3-amino-1,2,4-benzotriazine 1,4-dioxide], for which, in data set [3] (octanol/water), the log partition coefficient (logP) was -0.97. In the data set “Determination of LD50”, the LD50 was determined as 1000 µmol/kg. This compound yielded a solubility in “Solubility” of 2000 µM (≈ 446 µg/mL).
